Experimental findings from the supplement of paper PMC11208160 are described below.
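Also: IS621 bridge recombinase in Escherichia coli cells against a fixed T5 target plasmid.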

The data set in a line: recombinant UMI read abundance after kanamycin selection (control-corrected) (log10(CPM+1)); higher = more efficient recombination; extreme values may be limits of the assay; sequences stand for … in AGTGCAGAGAAAATCGGCCAGTTTTCTCTGCCTGCAGTCCGCATGCCGTGGGACCCCTTGGGTTCTAACCTGTTGCCTAGATTTATGCAGCGGACTGCCTTTCTCCCAAAGTGATAAACCGG…AGGTTGGTTTCACT; site = the 11-nt donor. In short, it runs like this: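 In a pooled Escherichia coli screen for the IS621 bridge recombinase, donor and donor-binding-loop pairs were each placed with a 12-nt UMI on a plasmid bearing a promoterless kanamycin gene. This library was co-electroporated with a target plasmid encoding a fixed target and T7-inducible recombinase, and cells were plated either on IPTG (0.07 mM) plus kanamycin or without selection, in two replicates each. Recombinant UMIs were PCR-amplified across the donor–target junction and sequenced, and counts were converted to CPM, averaged over replicates, scaled by control-derived factors and reported as log10(CPM+1).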
As for “CTAGTATCATGGACCGGTTTTCCCGGTAATCCGTATTTGAC (site CTAGAATCTCT)”, the “recombinant UMI read abundance (log10)” value was determined as 0. Turning to “CTAGTATCATGGACCGGTTTTCCCGGTAATCCGTATTTGAC (site CTAGAATCTGA)”, the “recombinant UMI read abundance (log10)” value stood at 0. Next, “CTAGTATCATGGACCGGTTTTCCCGGTAATCCGTATTTGAC (site CTAGAATCTGT)”: 0.992; “CTAGTATCATGGACCGGTTTTCCCGGTAATCCGTATTTGAC (site CTAGACTCTGT)”: 0; “CTAGTATCATGGACCGGTTTTCCCGGTAATCCGTATTTGAC (site CTAGCAGCTGT)”: 0. Regarding “CTAGTATCATGGACCGGTTTTCCCGGTAATCCGTATTTGAC (site CTAGCATCTGG)”, the “recombinant UMI read abundance (log10)” value turned out to be 0.

Regarding “CTAGTATCATGGACCGGTTTTCCCGGTAATCCGTATTTGAC (site CTAGCATCTGT)”, the “recombinant UMI read abundance (log10)” value was 1.59.

Consider “CTAGTATCATGGACCGGTTTTCCCGGTAATCCGTATTTGAC (site CTAGCATCTTT)”, for which the “recombinant UMI read abundance (log10)” value came to 0.0133.

“CTAGTATCATGGACCGGTTTTCCCGGTAATCCGTATTTGAC (site CTAGCTTCTGT)”: the “recombinant UMI read abundance (log10)” value worked out at 0. For “CTAGTATCATGGACCGGTTTTCCCGGTAATCCGTATTTGAC (site CTAGGACCTGT)”, the “recombinant UMI read abundance (log10)” value amounted to 0. For the sequence “CTAGTATCATGGACCGGTTTTCCCGGTAATCCGTATTTGAC (site CTAGGATCTAT)”, the “recombinant UMI read abundance (log10)” value came to 0.00421. On to “CTAGTATCATGGACCGGTTTTCCCGGTAATCCGTATTTGAC (site CTAGGATCTGC)”, for which the “recombinant UMI read abundance (log10)” value was 0.

For “CTAGTATCATGGACCGGTTTTCCCGGTAATCCGTATTTGAC (site CTAGGATCTGT)”, the “recombinant UMI read abundance (log10)” value is 0.927. Next, “CTAGTATCATGGACCGGTTTTCCCGGTAATCCGTATTTGAC (site CTAGGGTCTGT)”: 0; “CTAGTATCATGGACCGGTTTTCCCGGTAATCCGTATTTGAC (site CTAGTAACTCT)”: 0.0077; “CTAGTATCATGGACCGGTTTTCCCGGTAATCCGTATTTGAC (site CTAGTAACTGA)”: 0. Turning to “CTAGTATCATGGACCGGTTTTCCCGGTAATCCGTATTTGAC (site CTAGTAACTGT)”, the “recombinant UMI read abundance (log10)” value was 1.82. Next, “CTAGTATCATGGACCGGTTTTCCCGGTAATCCGTATTTGAC (site CTAGTACCTAT)”: 0.00604; “CTAGTATCATGGACCGGTTTTCCCGGTAATCCGTATTTGAC (site CTAGTACCTGC)”: 0; “CTAGTATCATGGACCGGTTTTCCCGGTAATCCGTATTTGAC (site CTAGTACCTGT)”: 0.

Turning to “CTAGTATCATGGACCGGTTTTCCCGGTAATCCGTATTTGAC (site CTAGTAGCTGG)”, the “recombinant UMI read abundance (log10)” value was determined as 0. On to “CTAGTATCATGGACCGGTTTTCCCGGTAATCCGTATTTGAC (site CTAGTAGCTGT)”, for which the “recombinant UMI read abundance (log10)” value was 0.

On to “CTAGTATCATGGACCGGTTTTCCCGGTAATCCGTATTTGAC (site CTAGTAGCTTT)”, for which the “recombinant UMI read abundance (log10)” value was 0.0305. Next, “CTAGTATCATGGACCGGTTTTCCCGGTAATCCGTATTTGAC (site CTAGTATCTAC)”: 0.564; “CTAGTATCATGGACCGGTTTTCCCGGTAATCCGTATTTGAC (site CTAGTATCTAT)”: 2.78; “CTAGTATCATGGACCGGTTTTCCCGGTAATCCGTATTTGAC (site CTAGTATCTCA)”: 0.333.

With “CTAGTATCATGGACCGGTTTTCCCGGTAATCCGTATTTGAC (site CTAGTATCTCT)”, the “recombinant UMI read abundance (log10)” value was found to be 1.67. Next, “CTAGTATCATGGACCGGTTTTCCCGGTAATCCGTATTTGAC (site CTAGTATCTGA)”: 1.14; “CTAGTATCATGGACCGGTTTTCCCGGTAATCCGTATTTGAC (site CTAGTATCTGC)”: 2.62. Next, “CTAGTATCATGGACCGGTTTTCCCGGTAATCCGTATTTGAC (site CTAGTATCTGG)”: 1.48; “CTAGTATCATGGACCGGTTTTCCCGGTAATCCGTATTTGAC (site CTAGTATCTGT)”: 2.66. Next, “CTAGTATCATGGACCGGTTTTCCCGGTAATCCGTATTTGAC (site CTAGTATCTTG)”: 0.0198; “CTAGTATCATGGACCGGTTTTCCCGGTAATCCGTATTTGAC (site CTAGTATCTTT)”: 2.1; “CTAGTATCATGGACCGGTTTTCCCGGTAATCCGTATTTGAC (site CTAGTCACTGT)”: 0. For “CTAGTATCATGGACCGGTTTTCCCGGTAATCCGTATTTGAC (site CTAGTCTCTCT)”, the “recombinant UMI read abundance (log10)” value amounted to 0.0131. Next, “CTAGTATCATGGACCGGTTTTCCCGGTAATCCGTATTTGAC (site CTAGTCTCTGA)”: 0. Next, “CTAGTATCATGGACCGGTTTTCCCGGTAATCCGTATTTGAC (site CTAGTCTCTGT)”: 1.18; “CTAGTATCATGGACCGGTTTTCCCGGTAATCCGTATTTGAC (site CTAGTGCCTGT)”: 0. Next, “CTAGTATCATGGACCGGTTTTCCCGGTAATCCGTATTTGAC (site CTAGTGTCTAT)”: 0.00843.

Consider “CTAGTATCATGGACCGGTTTTCCCGGTAATCCGTATTTGAC (site CTAGTGTCTGC)”, for which the “recombinant UMI read abundance (log10)” value came to 0. Next, “CTAGTATCATGGACCGGTTTTCCCGGTAATCCGTATTTGAC (site CTAGTGTCTGT)”: 2.01; “CTAGTATCATGGACCGGTTTTCCCGGTAATCCGTATTTGAC (site CTAGTTGCTGT)”: 0; “CTAGTATCATGGACCGGTTTTCCCGGTAATCCGTATTTGAC (site CTAGTTTCTGG)”: 0. Next, “CTAGTATCATGGACCGGTTTTCCCGGTAATCCGTATTTGAC (site CTAGTTTCTGT)”: 0. Next, “CTAGTATCATGGACCGGTTTTCCCGGTAATCCGTATTTGAC (site CTAGTTTCTTT)”: 0; “CTAGTATCATGGACCGGTTTTCCCGGTAATCCGTATTTGAC (site CTATGATCTGT)”: 0; “CTAGTATCATGGACCGGTTTTCCCGGTAATCCGTATTTGAC (site CTATTACCTGT)”: 0. For “CTAGTATCATGGACCGGTTTTCCCGGTAATCCGTATTTGAC (site CTATTATCTAT)”, the “recombinant UMI read abundance (log10)” value turned out to be 0. With “CTAGTATCATGGACCGGTTTTCCCGGTAATCCGTATTTGAC (site CTATTATCTGC)”, the “recombinant UMI read abundance (log10)” value worked out at 0. Next, “CTAGTATCATGGACCGGTTTTCCCGGTAATCCGTATTTGAC (site CTATTATCTGT)”: 0.701; “CTAGTATCATGGACCGGTTTTCCCGGTAATCCGTATTTGAC (site CTATTGTCTGT)”: 0; “CTAGTATCATGGACCGGTTTTCCCGGTAATCCGTATTTGAC (site CTCATATCTGT)”: 0.632.
